Assay results: article PMC12977544, “Phenotypic high-throughput screening identifies modulators of gut microbial choline metabolism” (mBio, 2026)

Experiments:
E. coli MS 200-1 = experiment: Growth-based phenotypic high-throughput screen (OD600 Z-scores, choline vs glycerol NCE medium); type: cell-based, Escherichia coli MS 200-1; settings: 20 µg/mL; for Z-score from HTS, Zcho at T1 / Z-score from HTS, Zcho at T2: choline NCE medium; for Z-score from HTS, Zcho at T1 / Z-score from HTS, Zgly at T1: 7 h; for Z-score from HTS, Zcho at T2 / Z-score from HTS, Zgly at T2: 20 h; for Z-score from HTS, Zgly at T1 / Z-score from HTS, Zgly at T2: glycerol NCE medium
Experimental: The primary screen was performed in duplicate using the ChemDiv7 commercial library from the Institute of Chemistry and Cell Biology–Longwood (ICCB-L) Screening Facility, consisting of 49,128 compounds (Fig. 1D). Each compound was tested at a concentration of 20 µg/mL.
NCE media was adapted based on the “no carbon E” media as previously described ([14]), and contains 29 mM potassium phosphate monobasic, 29 mM potassium phosphate dibasic, 17 mM ammonium sodium phosphate dibasic, 40 mM sodium fumarate dibasic, 0.1% (wt/vol) casamino acids, and either 20 mM choline chloride or 3 g/L glycerol. This mixture was supplemented with 1 mM magnesium sulfate, 1% ATCC vitamin supplement, and 1% ATCC trace mineral supplement.
Compounds from the Institute of Chemistry and Cell Biology-Longwood Screening Facility (ICCB-L) commercial ChemDiv7 library were transferred to 384-well plates at 5 mg/mL in DMSO.
E. coli was grown anaerobically in LB media containing 1 mM choline chloride overnight at 37°C and then resuspended (two log-fold dilution) in either NCE media supplemented with 20 mM choline or 3 g/L glycerol for screening. The E. coli cultures were then added to the compound plates and incubated at 37°C anaerobically. The final concentration of compounds in culture was 20 µg/mL. OD600 was measured at 7 h and 20 h in duplicate compound plates. For control, 60 µg/mL kanamycin was used. Z-scores of each compound were calculated by measuring the number of standard deviations of each well’s OD600 with respect to the plate’s mean OD600. Compounds with a Z-score of less than –2 on choline but more than or equal to 0 on glycerol, in at least one replicate plate, were selected for further validation. Z’ was calculated using the control columns, as an internal quality control.

[1] = Quantification of inhibitor 45 in serum and cecal contents of gnotobiotic mice (LC–MS/MS); type: in vivo, Mus musculus C57BL/6; settings: 24 h after inhibitor gavage
Experimental: Female C57BL/6 germ-free mice (n = 8 per inhibitor group), 10–12 weeks of age in an isolator, were colonized with 200 µL of mix containing the five bacterial species mentioned above at ~10^8 bacterial cells/mL. Mice were fed a 1% choline diet (Envigo) ad libitum. Two weeks after colonization, mice were administrated by gavage with 3 mg/kg of the inhibitor or vehicle between 6 and 8 a.m. once a day for three consecutive days. After a 10-day washout period, mice were orally administered 30 mg/kg of the inhibitor once a day (same time as above) for three consecutive days, and blood was collected 24 h after the last gavage.
A fecal sample was collected before the first gavage. At sacrifice, tissues collected were blood, cecal contents, a fecal pellet, proximal colon, distal small intestine, liver, and kidney. Mice were anesthetized with isoflurane and underwent cardiac puncture for a terminal blood draw, followed by cervical dislocation. Tissues were snap-frozen in liquid nitrogen. Blood was spun down at 8,000 × g for 8 min at room temperature; the resulting serum layer was removed and snap-frozen. All snap-frozen tissues were stored at −80°C until needed.
A standard curve of inhibitor 45 spiked in commercial mouse serum (Sigma) was prepared. To 50 µL of serum sample, 450 µL of a mixture 75% acetonitrile, 25% methanol, 1% formic acid was added to precipitate proteins. […]

[2] = first value of cell (replicate plate)
[3] = second value of cell (replicate plate)

Cc1ccc(-c2cc(C(=O)NCCCN3CCc4ccccc4C3)c(C)[nH]2)cc1C [Compound 5]
Z-score from HTS, Zcho at T1 (E. coli MS 200-1; [2]): −4.27 | Z-score from HTS, Zcho at T1 (E. coli MS 200-1; [3]): –4.23 | Z-score from HTS, Zcho at T2 (E. coli MS 200-1; [2]): 0.16 | Z-score from HTS, Zcho at T2 (E. coli MS 200-1; [3]): –0.06 | Z-score from HTS, Zgly at T1 (E. coli MS 200-1; [2]): −1.42 | Z-score from HTS, Zgly at T1 (E. coli MS 200-1; [3]): 0.61 | Z-score from HTS, Zgly at T2 (E. coli MS 200-1; [2]): 0.83 | Z-score from HTS, Zgly at T2 (E. coli MS 200-1; [3]): 1.41

Cc1ccc(-c2cc(C(=O)NCCCCCN3CCCCCC3)c(C)[nH]2)cc1C [Compound 45]
Concentration in wet cecal mass [1]: 463 pmol/µg | concentration at 24 h ([1]; female, C57BL/6, mouse, serum, oral, 30 mg/kg, limit of detection 1 µM): < 1000 nM
